Some results are limits rather than exact numbers.

In general, IC50 refers to the concentration that gives 50% inhibition.

In one assay the target is T1, Aurora kinase A (AURKA) (Homo sapiens, UniProt O14965).
T1 construct: endogenous in cells; host or cells: HeLa LgBit (AURKA-HiBit KI), CRISPR/Cas9 knock-in at the endogenous AURKA locus
T1 sequence (O14965 1-403): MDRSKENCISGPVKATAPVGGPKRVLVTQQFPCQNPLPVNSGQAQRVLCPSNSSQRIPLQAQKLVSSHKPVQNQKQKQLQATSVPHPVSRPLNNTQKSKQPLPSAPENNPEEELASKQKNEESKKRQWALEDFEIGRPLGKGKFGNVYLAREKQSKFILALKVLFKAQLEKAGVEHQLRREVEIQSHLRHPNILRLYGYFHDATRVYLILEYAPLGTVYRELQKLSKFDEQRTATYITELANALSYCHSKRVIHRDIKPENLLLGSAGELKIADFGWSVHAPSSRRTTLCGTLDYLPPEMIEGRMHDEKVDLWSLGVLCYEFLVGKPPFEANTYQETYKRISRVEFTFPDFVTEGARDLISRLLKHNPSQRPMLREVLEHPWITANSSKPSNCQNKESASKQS
In words: Luciferase assay for AURKA in HeLa LgBit (AURKA-HiBit KI) cell line. The assay is classed as cell-based. To be noted: HeLa LgBit (AURKA-HiBit KI) cells, measured after 12 hours. The essentials: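 Test compounds (10 nM or 100 nM) added to AURKA-HiBit knock-in HeLa LgBit cells that had been pre-loaded with Endurazine for 2 h following an 18 h culture at 3×10^4 cells. Endogenous AURKA-HiBit level followed by luminescence (470-480 nm), measured after 12 h.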
(With HiBiT, luminescence reflects the tagged protein that the partner subunit can reach.)

The test system of a further assay is NCI-H446 cell line. In words: Cell viability assay for NCI-H446 cell line. The class given is cell-based. To be noted: Homo sapiens, NCI-H446, 120 h; H446 cells, 5 days culture, EZ-Cytox; read-out: IC50 value (Level). The source says: The NCI-H446 (hereafter H446) cell lines were provided from American Type Culture Collection (ATCC). For cell culture, RPMI medium 1640 (Gibco, Cat. No. 22400-089; Lot. No. 2522717), FBS (Gibco, Cat. No. 16000-044; Lot. No. 2716756P), Penicillin/Streptomycin (PS) (Gibco, Cat. No. 15140-122; Lot. No. 2585636), 75T cell culture flask (SPL, Cat. No. 70075), 96 well cell culture plate (SPL, Cat. No. 30096), PBS pH 7.4 (Gibco, Cat. No. 10010-023; Lot. No. 2561466), TrypLE™ Express (Gibco, Cat. No. 12605-010; Lot. No. 2492811), counting chamber (hematocytometer) (Hirschmann, Cat. No. 8100204) and 0.4% Trypan Blue solution (DYNEBIO, Cat. No. CBT3710; Lot. No. 20231017) were used. Cells were cultured in RPMI 1640 medium supplemented with 10% FBS and 1% PS and incubated at 37° C., 5% CO2 condition in CO2 incubator (ThermoScientific, Cat. No. 4111).
For experiment, the present compounds were fully dissolved in DMSO (Sigma-Aldrich Cat. No. D2438, Lot. No. RNBL7287.
In each well of 96-well cell culture plate, […] cells of H446 cell lines were seeded in 150 μl of total medium volume. After 24 hours of cell seeding, the present compounds were treated.
The present compounds were each diluted 3-folds from the highest concentration of 1000 nM to the lowest concentration of 0.15 nM. The compound was added to each well to make the total volume of […] and the cells were cultured for 5 days in CO2 incubator (Thermo Fisher Science, Cat. No. 4111).
Thereafter, 20 μl of EZ-Cytox (DOGEN, Cat. NO. EZ-3000, Lot. No. DLS2308) was added to each well and the cells were cultured for 4 hours at the same condition in CO2 incubator. After culture, the absorbance of the sample was measured by setting the wavelength of a plate reader (BMG Labtech, CLARIOstar Plus) to […]. The samples were shaked for 2 minutes in the plate reader before measurement.

On to `O=C1CCC(Nc2ccc(N3CCC(CN4CCC5(CC4)CCN(C(=O)c4ccc(Nc6ncc(F)c(Nc7ccc(C(=O)Nc8ccccc8Cl)cc7)n6)cc4)C5)CC3)cc2)C(=O)N1` (stereo not drawn) [Compound 33, N-(2-chlorophenyl)-4-[[2-[4-[8-[[1-[4-[(2,6-dioxo-3-piperidyl)amino]phenyl]-4-piperidyl]methyl]-2,8-diazaspiro[4.5]decane-2-carbonyl]anilino]-5-fluoro-pyrimidin-4-yl]amino]benzamide], for which the “luminescence value (Level)” value at Aurora kinase A (AURKA) (10 nM compound) is reported as “B (B is 0.3 to 0.5)”; at Aurora kinase A (AURKA) (100 nM compound) it was “A (A is <0.2)”. The IC50 in the assay on NCI-H446 cell line was 100 to 150 nM.

In the case of `C[C@@H](CN1CCN(c2ccc(C3CCC(=O)NC3=O)cc2)CC1)C1CCN(NC(=O)c2ccc(Nc3ncc(F)c(Nc4ccc(C(=O)Nc5ccccc5Cl)cc4)n3)cc2)CC1` (stereo partly drawn) [Compound 79, N-(2-chlorophenyl)-4-((2-((4-((4-((2R)-1-(4-(4-(2,6-dioxopiperidin-3-yl)phenyl)piperazin-1-yl)propan-2-yl)piperidin-1-yl)carbamoyl)phenyl)amino)-5-fluoropyrimidin-4-yl)amino)benzamide], the “luminescence value (Level)” value is given as “A (A is <0.3)” on Aurora kinase A (AURKA) (10 nM compound) and “A (A is <0.2)” on Aurora kinase A (AURKA) (100 nM compound). Besides, the IC50 in the assay on NCI-H446 cell line is less than 50 nM.

For `O=C1CCC(c2ccc(N3CCN(CC[C@H]4CC[C@H](NC(=O)c5ccc(Nc6ncc(F)c(Nc7ccc(C(=O)Nc8ccccc8Cl)cc7)n6)cc5)CC4)CC3)c(F)c2)C(=O)N1` (stereo partly drawn) [Compound 74, N-(2-chlorophenyl)-4-((2-((4-(((1r,4r)-4-(2-(4-(4-(2,6-dioxopiperidin-3-yl)-2-fluorophenyl)piperazin-1-yl)ethyl)cyclohexyl)carbamoyl)phenyl)amino)-5-fluoropyrimidin-4-yl)amino)benzamide], the “luminescence value (Level)” value is on record as “B (B is 0.3 to 0.5)” on Aurora kinase A (AURKA) (10 nM compound) and “A (A is <0.2)” on Aurora kinase A (AURKA) (100 nM compound). In addition, in the assay with NCI-H446 cell line, the IC50 is less than 50 nM.

Turning to `O=C1CCC(c2ccc(N3CCC(N4CCC5(CC4)CC(NC(=O)Cc4ccc(Nc6ncc(F)c(Nc7ccc(C(=O)Nc8ccccc8Cl)cc7)n6)cc4)C5)CC3)c(F)c2)C(=O)N1` (stereo not drawn) [Compound 22, N-(2-chlorophenyl)-4-((2-((4-(2-((7-(1-(4-(2,6-dioxopiperidin-3-yl)-2-fluorophenyl)piperidin-4-yl)-7-azaspiro[3.5]nonan-2-yl)amino)-2-oxoethyl)phenyl)amino)-5-fluoropyrimidin-4-yl)amino)benzamide], the entries for the “luminescence value (Level)” value at Aurora kinase A (AURKA) (10 nM compound) and at Aurora kinase A (AURKA) (100 nM compound) were “A (A is <0.3)” and “A (A is <0.2)”, respectively. In addition, the IC50 in the assay with NCI-H446 cell line was in the range of 100 to 150 nM.

With `O=C1CCC(c2ccc(N3CCN(Cc4ccc(NC(=O)c5ccc(Nc6ncc(F)c(Nc7ccc(C(=O)Nc8ccccc8Cl)cc7)n6)cc5)cc4)CC3)cc2)C(=O)N1` (stereo not drawn) [Compound 13, N-(2-chlorophenyl)-4-((2-((4-((4-((4-(4-(2,6-dioxopiperidin-3-yl)phenyl)piperazin-1-yl)methyl)phenyl)carbamoyl)phenyl)amino)-5-fluoropyrimidin-4-yl)amino)benzamide], the “luminescence value (Level)” value on Aurora kinase A (AURKA) (10 nM compound) was “C (C is 0.5 to 0.7)”; at Aurora kinase A (AURKA) (100 nM compound), “B (B is 0.2 to 0.4)”. Also, the IC50 in the assay on NCI-H446 cell line is greater than 200 nM.

As to `O=C1CCC(c2ccc(N3CCN(CCN4CC(NC(=O)c5ccc(Nc6ncc(F)c(Nc7ccc(C(=O)Nc8ccccc8Cl)cc7)n6)cc5)C4)CC3)cc2)C(=O)N1` (stereo not drawn) [Compound 65, N-(2-chlorophenyl)-4-((2-((4-((1-(2-(4-(4-(2,6-dioxopiperidin-3-yl)phenyl)piperazin-1-yl)ethyl)azetidin-3-yl)carbamoyl)phenyl)amino)-5-fluoropyrimidin-4-yl)amino) benzamide], the “luminescence value (Level)” value at Aurora kinase A (AURKA) (10 nM compound) is reported as “B (B is 0.3 to 0.5)”; on Aurora kinase A (AURKA) (100 nM compound) it was “A (A is <0.2)”. Further, the IC50 in the assay with NCI-H446 cell line was 50 to 100 nM.

(Values after US20260226071A1, “2, 4-DIANILINOPYRIMIDINE-BASED AURORA-A KINASE SELECTIVE DEGRADATION INDUCING COMPOUNDS” (UPPTHERA, INC., priority 2023, published 2026).)
